Tests used:
Format in all cases: functional, organism-based
Plasmodium falciparum [1] = assay: Antimalarial activity against Plasmodium falciparum 3D7 harboring Ppcrt I371R mutant gene and Pfnhe-1 ms4760 microsatellite mutant assessed as incorporation of [3]H hypoxanthine after 48 hrs by scintillation counter; conditions: 3D7, 48 h
Plasmodium falciparum [2] = assay: Antimalarial activity against Plasmodium falciparum FCM29 assessed as inhibition of [3H] incorporation after 48 hrs by scintillation counter
Plasmodium falciparum [3] = assay: Antimalarial activity against Plasmodium falciparum IMT 31 assessed as inhibition of [3H] incorporation after 48 hrs by scintillation counter
Plasmodium falciparum [4] = assay: Antimalarial activity against Plasmodium falciparum IMT L1 harboring Ppcrt M74I, N75E, K76T, A220S, Q271E mutant gene, Pmdr1 N86Y mutant gene and Pfmrp H191Y and S437A mutant gene assessed as incorporation of [3]H hypoxanthine after 48 hrs by scintillation counter; conditions: IMT L1, 48 h
Plasmodium falciparum [5] = assay: Antimalarial activity against Plasmodium falciparum PA harboring Ppcrt M74I, N75E, K76T, A220S, Q271E, N326S and I356T mutant gene, Pmdr1 N86Y mutant gene and Pfmrp H191Y and S437A mutant gene assessed as incorporation of [3]H hypoxanthine after 48 hrs by scintillation counter
Plasmodium falciparum [6] = assay: Antimalarial activity against Plasmodium falciparum 106/1 harboring Ppcrt M74I, N75E, K76T, A220S, Q271E, N326S and I356T mutant gene, Pmdr1 N86Y mutant gene and Pfmrp H191Y and S437A mutant gene assessed as incorporation of [3]H hypoxanthine after 48 hrs by scintillation counter; conditions: 106/1, 48 h
Plasmodium falciparum [7] = assay: Antimalarial activity against Plasmodium falciparum IMT K4 harboring Ppcrt M74I, N75E, K76T, A220S, Q271E, N326S mutant gene, Pmdr1 S1034C, N1042D mutant gene and Pfmrp H191Y and S437A mutant gene assessed as incorporation of [3]H hypoxanthine after 48 hrs by scintillation counter; conditions: IMT K4, 48 h
Plasmodium falciparum [8] = assay: Antimalarial activity against Plasmodium falciparum IMT 16332 assessed as inhibition of [3H] incorporation after 48 hrs by scintillation counter
Plasmodium falciparum [9] = assay: Antimalarial activity against Plasmodium falciparum FCR3 assessed as inhibition of [3H] incorporation after 48 hrs by scintillation counter
Plasmodium falciparum [10] = assay: Antimalarial activity against Plasmodium falciparum IMT 31 harboring Ppcrt I371R mutant gene assessed as incorporation of [3]H hypoxanthine after 48 hrs by scintillation counter; conditions: IMT 31, 48 h
Plasmodium falciparum [11] = assay: Antimalarial activity against Plasmodium falciparum IMT 10354 harboring Ppcrt M74I, N75E, K76T, A220S mutant gene, Pmdr1 D1246Y mutant gene assessed as incorporation of [3]H hypoxanthine after 48 hrs by scintillation counter; conditions: IMT 10354, 48 h
Plasmodium falciparum [12] = assay: Antimalarial activity against Plasmodium falciparum IMT 10354 assessed as inhibition of [3H] incorporation after 48 hrs by scintillation counter
Plasmodium falciparum [13] = assay: Antimalarial activity against Plasmodium falciparum IMT Guy assessed as inhibition of [3H] incorporation after 48 hrs by scintillation counter
Plasmodium falciparum [14] = assay: Antimalarial activity against Plasmodium falciparum IMT 16332 harboring Ppcrt M74I, N75E, K76T, A220S, Q271E mutant gene, Pmdr1 N86Y mutant gene assessed as incorporation of [3]H hypoxanthine after 48 hrs by scintillation counter; conditions: IMT 16332, 48 h
Plasmodium falciparum [15] = assay: Antimalarial activity against Plasmodium falciparum FCM29 harboring Ppcrt M74I, N75E, K76T, A220S, Q271E, N326S and I356T mutant gene, Pmdr1 N86Y mutant gene and Pfmrp H191Y and S437A mutant gene assessed as incorporation of [3]H hypoxanthine after 48 hrs by scintillation counter; conditions: FCM29, 48 h
Plasmodium falciparum [16] = assay: Antimalarial activity against Plasmodium falciparum IMT 8425 assessed as inhibition of [3H] incorporation after 48 hrs by scintillation counter
Plasmodium falciparum [17] = assay: Antimalarial activity against Plasmodium falciparum FCR3 harboring Ppcrt M74I, N75E, K76T, A220S, Q271E, N326S and I356T mutant gene, Pmdr1 N86Y mutant gene and Pfmrp H191Y and S437A mutant gene assessed as incorporation of [3]H hypoxanthine after 48 hrs by scintillation counter; conditions: FCR3, 48 h
Plasmodium falciparum [18] = assay: Antimalarial activity against Plasmodium falciparum IMT L1 assessed as inhibition of [3H] incorporation after 48 hrs by scintillation counter
Plasmodium falciparum [19] = assay: Antimalarial activity against Plasmodium falciparum IMT 10336 assessed as inhibition of [3H] incorporation after 48 hrs by scintillation counter
Plasmodium falciparum [20] = assay: Antimalarial activity against Plasmodium falciparum IMT K2 assessed as inhibition of [3H] incorporation after 48 hrs by scintillation counter
Plasmodium falciparum [21] = assay: Antimalarial activity against Plasmodium falciparum W2 harboring Ppcrt M74I, N75E, K76T, A220S, Q271E, N326S and I356T mutant gene, Pmdr1 N86Y mutant gene and Pfmrp H191Y and S437A mutant gene assessed as incorporation of [3]H hypoxanthine after 48 hrs by scintillation counter; conditions: W2, 48 h
Plasmodium falciparum [22] = assay: Antimalarial activity against Plasmodium falciparum IMT K14 assessed as inhibition of [3H] incorporation after 48 hrs by scintillation counter
Plasmodium falciparum [23] = assay: Antimalarial activity against Plasmodium falciparum IMT Vol harboring Ppcrt M74I, N75E, K76T, A220S, Q271E, N326S mutant gene, Pmdr1 N86Y mutant gene and Pfmrp H191Y and S437A mutant gene assessed as incorporation of [3]H hypoxanthine after 48 hrs by scintillation counter
Plasmodium falciparum [24] = assay: Antimalarial activity against Plasmodium falciparum W2 assessed as inhibition of [3H] incorporation after 48 hrs by scintillation counter
Plasmodium falciparum [25] = assay: Antimalarial activity against Plasmodium falciparum 106/1 assessed as inhibition of [3H] incorporation after 48 hrs by scintillation counter
Plasmodium falciparum [26] = assay: Antimalarial activity against Plasmodium falciparum IMT 9881 harboring Ppcrt I371R mutant gene assessed as incorporation of [3]H hypoxanthine after 48 hrs by scintillation counter; conditions: IMT 9881, 48 h
Plasmodium falciparum [27] = assay: Antimalarial activity against Plasmodium falciparum IMT K4 assessed as inhibition of [3H] incorporation after 48 hrs by scintillation counter
Plasmodium falciparum [28] = assay: Antimalarial activity against Plasmodium falciparum HB3 assessed as inhibition of [3H] incorporation after 48 hrs by scintillation counter
Plasmodium falciparum [29] = assay: Antimalarial activity against Plasmodium falciparum IMT 10336 harboring Pfcrt Q271E mutant gene and Ppcrt I371R mutant gene assessed as incorporation of [3]H hypoxanthine after 48 hrs by scintillation counter; conditions: IMT 10336, 48 h
Plasmodium falciparum [30] = assay: Antimalarial activity against Plasmodium falciparum 3D7 assessed as inhibition of [3H] incorporation after 48 hrs by scintillation counter
Plasmodium falciparum [31] = assay: Antimalarial activity against Plasmodium falciparum D6 assessed as inhibition of [3H] incorporation after 48 hrs by scintillation counter
Plasmodium falciparum [32] = assay: Antimalarial activity against Plasmodium falciparum IMT 8425 harboring Ppcrt I371R mutant gene and Pfnhe-1 ms4760 microsatellite mutant assessed as incorporation of [3]H hypoxanthine after 48 hrs by scintillation counter; conditions: IMT 8425, 48 h
Plasmodium falciparum [33] = assay: Antimalarial activity against Plasmodium falciparum IMT A4 harboring Ppcrt M74I, N75E, K76T, […], Q271E, N326S and I356T mutant gene, Pmdr1 Y184F, N1042D, D1246Y mutant gene assessed as incorporation of [3]H hypoxanthine after 48 hrs by scintillation counter; conditions: IMT A4, 48 h
Plasmodium falciparum [34] = assay: Antimalarial activity against Plasmodium falciparum IMT Bres assessed as inhibition of [3H] incorporation after 48 hrs by scintillation counter
Plasmodium falciparum [35] = assay: Antimalarial activity against Plasmodium falciparum IMT 10500 harboring Pfcrt Q271E mutant gene and Ppcrt I371R mutant gene and Pfnhe-1 ms4760 microsatellite mutant assessed as incorporation of [3]H hypoxanthine after 48 hrs by scintillation counter; conditions: IMT 10500, 48 h
Plasmodium falciparum [36] = assay: Antimalarial activity against Plasmodium falciparum PA assessed as inhibition of [3H] incorporation after 48 hrs by scintillation counter
Plasmodium falciparum [37] = assay: Antimalarial activity against Plasmodium falciparum IMT A4 assessed as inhibition of [3H] incorporation after 48 hrs by scintillation counter
Plasmodium falciparum [38] = assay: Antimalarial activity against Plasmodium falciparum D6 harboring Ppcrt I371R mutant gene assessed as incorporation of [3]H hypoxanthine after 48 hrs by scintillation counter; conditions: D6, 48 h
Plasmodium falciparum [39] = assay: Antimalarial activity against Plasmodium falciparum IMT K14 harboring Ppcrt M74I, N75E, K76T, A220S, Q271E, N326S mutant gene, Pmdr1 Y184F, S1034C, N1042D, D1246Y mutant gene and Pfmrp H191Y and S437A mutant gene assessed as incorporation of [3]H hypoxanthine after 48 hrs by scintillation counter; conditions: IMT K14, 48 h
Plasmodium falciparum [40] = assay: Antimalarial activity against Plasmodium falciparum IMT K2 harboring Ppcrt M74I, N75E, K76T, A220S, Q271E, N326S mutant gene, Pmdr1 S1034C, N1042D mutant gene and Pfmrp H191Y and S437A mutant gene assessed as incorporation of [3]H hypoxanthine after 48 hrs by scintillation counter; conditions: IMT K2, 48 h
Plasmodium falciparum [41] = assay: Antimalarial activity against Plasmodium falciparum IMT Bres harboring Ppcrt M74I, N75E, K76T, A220S, Q271E, N326S and I356T mutant gene, Pmdr1 N86Y mutant gene and Pfmrp H191Y and S437A mutant gene assessed as incorporation of [3]H hypoxanthine after 48 hrs by scintillation counter
Plasmodium falciparum [42] = assay: Antimalarial activity against Plasmodium falciparum IMT Guy harboring Ppcrt K76T, A220S, N326D and I371R mutant gene, Pmdr1 […], 1042D and D1246Y, mutant gene and Pfmrp H191Y and S437A mutant gene and Pfnhe-1 ms4760 microsatellite mutant assessed as incorporation of [3]H hypoxanthine after 48 hrs by scintillation counter
Plasmodium falciparum [43] = assay: Antimalarial activity against Plasmodium falciparum IMT 10500 assessed as inhibition of [3H] incorporation after 48 hrs by scintillation counter
Plasmodium falciparum [44] = assay: Antimalarial activity against Plasmodium falciparum HB3 harboring Ppcrt I371R mutant gene and Pfmdr1 Y184F mutant gene assessed as incorporation of [3]H hypoxanthine after 48 hrs by scintillation counter; conditions: HB3, 48 h

SMILES: Clc1ccc2c(N3CCN(CCCN4CCN(c5ccnc6cc(Cl)ccc56)CC4)CC3)ccnc2c1 [PIPERAQUINE]
- IC50 (Plasmodium falciparum [1]): 58 nM
- IC50 (Plasmodium falciparum [2]): 98 nM
- IC50 (Plasmodium falciparum [3]): 48 nM
- IC50 (Plasmodium falciparum [4]): 47 nM
- IC50 (Plasmodium falciparum [5]): 80 nM
- IC50 (Plasmodium falciparum [6]): 69 nM
- IC50 (Plasmodium falciparum [7]): 64 nM
- IC50 (Plasmodium falciparum [8]): 48 nM
- IC50 (Plasmodium falciparum [9]): 53 nM
- IC50 (Plasmodium falciparum [10]): 48 nM
- IC50 (Plasmodium falciparum [11]): 29 nM
- IC50 (Plasmodium falciparum [12]): 29 nM
- IC50 (Plasmodium falciparum [13]): 63 nM
- IC50 (Plasmodium falciparum [14]): 48 nM
- IC50 (Plasmodium falciparum [15]): 98 nM
- IC50 (Plasmodium falciparum [16]): 44 nM
- IC50 (Plasmodium falciparum [17]): 53 nM
- IC50 (Plasmodium falciparum [18]): 47 nM
- IC50 (Plasmodium falciparum [19]): 74 nM
- IC50 (Plasmodium falciparum [20]): 84 nM
- IC50 (Plasmodium falciparum [21]): 52 nM
- IC50 (Plasmodium falciparum [22]): 61 nM
- IC50 (Plasmodium falciparum [23]): 37 nM
- IC50 (Plasmodium falciparum [24]): 52 nM
- IC50 (Plasmodium falciparum [25]): 69 nM
- IC50 (Plasmodium falciparum [26]): 56 nM
- IC50 (Plasmodium falciparum [27]): 64 nM
- IC50 (Plasmodium falciparum [28]): 55 nM
- IC50 (Plasmodium falciparum [29]): 74 nM
- IC50 (Plasmodium falciparum [30]): 58 nM
- IC50 (Plasmodium falciparum [31]): 58 nM
- IC50 (Plasmodium falciparum [32]): 44 nM
- IC50 (Plasmodium falciparum [33]): 75 nM
- IC50 (Plasmodium falciparum [34]): 46 nM
- IC50 (Plasmodium falciparum [35]): 81 nM
- IC50 (Plasmodium falciparum [36]): 80 nM
- IC50 (Plasmodium falciparum [37]): 75 nM
- IC50 (Plasmodium falciparum [38]): 58 nM
- IC50 (Plasmodium falciparum [39]): 61 nM
- IC50 (Plasmodium falciparum [40]): 84 nM
- IC50 (Plasmodium falciparum [41]): 46 nM
- IC50 (Plasmodium falciparum [42]): 63 nM
- IC50 (Plasmodium falciparum [43]): 81 nM
- IC50 (Plasmodium falciparum [44]): 55 nM

Reference: ChEMBL document CHEMBL1649312, “Absence of association between piperaquine in vitro responses and polymorphisms in the pfcrt, pfmdr1, pfmrp, and pfnhe genes in Plasmodium falciparum” (Antimicrob Agents Chemother, 2010)
